Assay results reported in patent publication US9987266B2, “Alkyl-amide-substituted pyridyl compounds useful as modulators of IL-12, IL-23 and/or IFNα responses” (BRISTOL-MYERS SQUIBB COMPANY, priority 2013, dated 2018).
Like-named read-outs stand apart in the source and are kept apart here.

Tests used:
[1] = test system: Kit225 T cells with STAT-dependent luciferase reporter stimulated with human recombinant IFNα; assay: Kit225 T cell assay, IFNα stimulated STAT-dependent luciferase reporter; format: cell-based
Experimental: (§1) Kit225 T cells with a stably-integrated STAT-dependent luciferase reporter were plated in RPMI (Gibco) containing 10% heat-inactivated FBS (Gibco) and 100 U/mL PenStrep (Gibco). The cells were then stimulated with either 20 ng/mL human recombinant IL-23 or 200 U/mL human recombinant IFNα (PBL InterferonSource) for 5-6 hours. Luciferase expression was measured using the STEADY-GLO® Luciferase Assay System (Promega) according to the manufacturer's instructions.

[2] = test system: Kit225 T cells with STAT-dependent luciferase reporter stimulated with human recombinant IL-23; assay: Kit225 T cell assay, IL-23 stimulated STAT-dependent luciferase reporter; format: cell-based
Experimental: as §1

[3] = target: T1, recombinantly expressed His-tagged protein corresponding to amino acids 575-869 of human Tyk2 (Homo sapiens, UniProt P29597); assay: Probe displacement assay (scintillation proximity, radiolabeled probe); format: binding; conditions: 2.5 nM Tyk2 (575-869), 40 nM [3H] probe, 30 minutes at room temperature
T1 construct: made in house
T1 sequence (P29597 with tags, fused parts or gaps): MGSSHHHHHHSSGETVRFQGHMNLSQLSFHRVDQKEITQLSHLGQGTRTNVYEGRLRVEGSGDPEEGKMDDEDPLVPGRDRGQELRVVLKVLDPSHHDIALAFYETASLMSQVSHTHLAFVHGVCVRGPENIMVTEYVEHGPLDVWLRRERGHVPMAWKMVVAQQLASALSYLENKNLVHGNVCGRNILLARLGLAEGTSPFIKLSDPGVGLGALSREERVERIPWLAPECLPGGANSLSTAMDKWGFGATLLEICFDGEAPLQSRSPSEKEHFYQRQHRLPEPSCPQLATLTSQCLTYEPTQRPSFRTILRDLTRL
Experimental: The preparation of radiolabeled probe, (R)—N-(1-(3-(8-methyl-5-(methylamino)-8H-imidazo[4,5-d]thiazolo[5,4-b]pyridin-2-yl)phenyl)ethyl)-2-([^3H]methylsulfonyl)benzamide, was performed as described below: […]

[4] = KIT225, 200 U/mL human recombinant IFNα, 5-6 hours, luciferase, read-out: IFNa Kit225 Reporter, LE (IC50)
[5] = KIT225, 20 ng/mL human recombinant IL-23, 5-6 hours, luciferase, read-out: IL-23 Kit225 Reporter, LE (IC50)
[6] = Homo sapiens, KIT225, read-out: IFNa Kit225 Reporter, LE (IC50, μM)
[7] = Homo sapiens, KIT225, read-out: IL-23 Kit225 Reporter, LE (IC50, μM)

SMILES | IC50 [1, 4] [µM] | IC50 [2, 5] [µM] | EC50 [3] [nM] | IC50 [1, 6] [µM] | IC50 [2, 7] [µM]
CNC(=O)c1cnc(NC(=O)C2CC2)cc1Nc1ccccc1S(C)(=O)=O [Example 1] | 0.24 | 0.3 | 20 |  | 
CNC(=O)c1cnc(NC(C)=O)cc1Nc1ccccc1S(C)(=O)=O [Example 2] | 12.5 | 7.06 | 430 |  | 
CNC(=O)c1cnc(NC(=O)[C@@H]2CCCO2)cc1Nc1ccccc1S(C)(=O)=O [Example 3] | 12.5 | 6.52 | 830 |  | 
CNC(=O)c1cnc(NC(=O)C2CCOCC2)cc1Nc1ccccc1S(C)(=O)=O [Example 4] | 12.5 | 2.09 | 760 |  | 
CNC(=O)c1cnc(NC(=O)C2CCCCC2)cc1Nc1ccccc1S(C)(=O)=O [Example 5] | 8.93 | 1.88 | 800 |  | 
CNC(=O)c1cnc(NC(=O)Cc2ccccc2)cc1Nc1ccccc1S(C)(=O)=O [Example 6] | 1.11 | 1.16 | 120 |  | 
CNC(=O)c1cnc(NC(=O)C(C)C)cc1Nc1ccccc1S(C)(=O)=O [Example 7] | 4.21 | 0.4 | 460 |  | 
CNC(=O)c1cnc(NC(=O)[C@H]2CC2(C)C)cc1Nc1ccccc1S(C)(=O)=O [Example 8] | 1 | 4.68 | 250 |  | 
CNC(=O)c1cnc(NC(=O)C2CCCc3ccccc32)cc1Nc1ccccc1S(C)(=O)=O (stereo not shown) [Example 9] |  |  | 940 | 2.56 | 13.3
CNC(=O)c1cnc(NC(=O)Cc2ccccn2)cc1Nc1ccccc1S(C)(=O)=O [Example 10] | 6.03 | 4.55 | 380 |  | 
CCCC(=O)Nc1cc(Nc2ccccc2S(C)(=O)=O)c(C(=O)NC)cn1 [Example 11] | 2.49 | 2.95 | 240 |  | 
CNC(=O)c1cnc(NC(=O)Cc2ccc(OC)cc2)cc1Nc1ccccc1S(C)(=O)=O [Example 12] | 0.58 | 4.42 | 230 |  | 
CNC(=O)c1cnc(NC(=O)C2CCC2)cc1Nc1ccccc1S(C)(=O)=O [Example 14] | 0.87 | 3.15 | 170 |  | 
CNC(=O)c1cnc(NC(=O)C2CC2)cc1Nc1ccc(F)cc1S(C)(=O)=O [Example 15] | 0.34 | 0.69 | 50 |  | 
CCNC(=O)Nc1cc(Nc2ccccc2S(C)(=O)=O)c(C(=O)NC)cn1 [Example 16] | 3.37 | 12.5 | 90 |  | 
CNC(=O)Nc1cc(Nc2ccccc2S(C)(=O)=O)c(C(=O)NC)cn1 [Example 17] | 9.54 | 11.4 | 200 |  | 
CNC(=O)c1cnc(NC(=O)C2CC2)cc1Nc1cccc(F)c1S(C)(=O)=O [Example 18] | 9.91 | 6.61 | 540 |  | 
CNC(=O)c1cnc(NC(=O)C2CC2)cc1Nc1ccccc1C(C)(C)O [Example 19] | 8.51 | 5.69 | 720 |  | 
CNC(=O)c1cnc(NC(=O)C2CC2)cc1Nc1cc(F)ccc1S(C)(=O)=O [Example 20] | 1.2 | 1.44 | 150 |  | 
CNC(=O)c1cnc(NC(=O)C2CC2(F)F)cc1Nc1ccccc1S(C)(=O)=O (stereo not shown) [Example 21] | 1.85 | 2.26 | 140 |  | 
CNC(=O)c1cnc(NC(=O)C2CC2F)cc1Nc1ccccc1S(C)(=O)=O (stereo not shown) [Example 22] | 1.24 | 2.12 | 80 |  | 
CNC(=O)c1cnc(NC(=O)COC)cc1Nc1ccc(F)c(F)c1OC [Example 23] | 3.89 | 12.5 | 1020 |  | 

SMILES | IC50 [1, 4] [µM] | IC50 [2, 5] [µM] | EC50 [3] [nM] | IC50 [1, 6] [µM] | IC50 [2, 7] [µM]
CNC(=O)c1cnc(NC(C)=O)cc1Nc1ccc(F)c(F)c1OC [Example 24] | 7.24 | 11.2 | 420 |  | 
CNC(=O)c1cnc(NC(=O)C2CC2)cc1Nc1ccc(F)c(F)c1OC [Example 25] | 0.1 | 0.23 | 40 |  | 
CNC(=O)c1cnc(NC(=O)Nc2ccccc2)cc1Nc1ccccc1S(C)(=O)=O [Example 27] |  |  | 290 | 3.06 | 3.17
CNC(=O)c1cnc(NC(=O)C2CC2)cc1Nc1cccc(-c2nnc(C)o2)c1OC [Example 28] | 0.04 | 0.07 | 10 |  | 
CNC(=O)c1cnc(NC(=O)C2CC2)cc1Nc1cccc(-c2nnc[nH]2)c1OC [Example 29] | 0.03 | 0.02 | 5.46 |  | 
CNC(=O)c1cnc(NC(=O)C2CC2)cc1Nc1cccc(-c2ncn(C)n2)c1OC [Example 30] | 0.01 | 0.03 | 6.17 |  | 
[2H]C([2H])([2H])NC(=O)c1cnc(NC(=O)C2CC2)cc1Nc1cccc(-c2ncn(C)n2)c1OC [Example 31] | 0.01 | 0.00478 | 3.81 |  | 
CNC(=O)c1cnc(NC(=O)C2CC2)cc1Nc1cccc(-c2ccn(C)n2)c1OC [Example 32] | 0.00705 | 0.00731 | 1.63 |  | 
CNC(=O)c1cnc(NC(=O)C2CC2)cc1Nc1cccc(-c2ccnn2C)c1OC [Example 33] | 0.09 | 0.11 | 5.34 |  | 
[2H]C([2H])([2H])NC(=O)c1cnc(NC(=O)C2CC2)cc1Nc1cccc(-c2ccn(C)n2)c1OC [Example 34] | 0.00873 | 0.02 | 6.42 |  | 
[2H]C([2H])([2H])NC(=O)c1cnc(NC(=O)C2CC2)cc1Nc1cccc(-c2ccnn2C)c1OC [Example 35] | 0.28 | 0.06 | 40 |  | 
[2H]C([2H])([2H])NC(=O)c1cnc(NC(=O)C2CC2)cc1Nc1cccc(-c2ccn(CC(F)F)n2)c1OC [Example 36] | 0.04 | 0.1 | 4.2 |  | 
[2H]C([2H])([2H])NC(=O)c1cnc(NC(=O)C2CC2)cc1Nc1cccc(-c2ccn(CC)n2)c1OC [Example 37] | 0.07 | 0.12 | 3.52 |  | 
[2H]C([2H])([2H])NC(=O)c1cnc(NC(=O)C2CC2)cc1Nc1cccc(-c2ccnn2CC)c1OC [Example 38] | 1.66 | 1.52 | 160 |  | 
[2H]C([2H])([2H])NC(=O)c1cnc(NC(=O)C2CC2)cc1Nc1cccc(-c2ccn(CC(F)(F)F)n2)c1OC [Example 39] |  |  | 20 | 0.16 | 0.08
[2H]C([2H])([2H])NC(=O)c1cnc(NC(=O)C2CC2)cc1Nc1cccc(-c2ccn(CC(C)(C)O)n2)c1OC [Example 40] | 0.16 | 0.17 | 3.86 |  | 
[2H]C([2H])([2H])NC(=O)c1cnc(NC(=O)C2CC2)cc1Nc1cccc(-c2ccn(CCC#N)n2)c1OC [Example 41] |  |  | 2.74 | 0.09 | 0.19
CNC(=O)c1cnc(NC(=O)C2CC2)cc1Nc1cccc(-c2cnn(C)c2)c1OC [Example 42] | 0.02 | 0.05 | 7.19 |  | 
[2H]C([2H])([2H])NC(=O)c1cnc(NC(=O)C2CC2)cc1Nc1cccc(-c2cnn(C)c2)c1OC [Example 43] | 0.02 | 0.06 | 2.54 |  | 
[2H]C([2H])([2H])NC(=O)c1cnc(NC(=O)C2CC2)cc1Nc1cccc(-c2nnn(C)n2)c1OC [Example 44] | 0.00117 | 0.00229 |  |  | 
[2H]C([2H])([2H])NC(=O)c1cnc(NC(=O)C2CC2)cc1Nc1cccc(-c2csc(C)n2)c1OC [Example 45] | 0.01 | 0.01 | 5.56 |  | 
[2H]C([2H])([2H])NC(=O)c1cnc(NC(=O)C2CC2)cc1Nc1cccc(-c2ncc(F)cn2)c1OC [Example 46] | 0.013 | 0.022 |  |  | 
